Source: patent publication US20240325363A1, “COMPOSITION FOR TREATMENT OF ANTICANCER AGENT-RESISTANT CANCER” (ONCOCROSS CO.,LTD., priority 2021, published 2024)

Columns and labels:
KRAS [1] = assay: KRAS mRNA expression by Endpoint PCR / qRT-PCR in cancer cell lines; type: cell-based, human; conditions: for KRAS expression: HCT116 cells, comparison with other CDK inhibitors
Experimental: (§1) In order to confirm the effect of inhibiting KRAS expression by GW8510, a human colon cancer cell line HCT116 with a KRAS G13D mutation, a human prostate cancer cell line PC-3 with a KRAS G13D mutation, a human breast cancer cell line MCF7 as a KRAS wild-type cell line, a human pancreatic cancer cell line MIA PaCa-2 with a KRAS G12C mutation, and a human pancreatic cancer cell line PANC-1 with a KRAS G12D mutation were dispensed in a 6-well plate, and treated with GW8510 at 0, 1, 5 or 10 μM of concentration for 3, 6, 24 or 48 hours. Thereafter, RNA was extracted from the cells using a TRIzol™ Reagent (Thermo Fisher Scientific Inc., USA) and then cDNA was synthesized using M-MLV reverse-transcriptase (ELPIS Biotech, Korea), 2.5 mM dNTP (TransGen Biotech, China), and oligo dT15 (bioneer, Korea). Endpoint PCR was performed using an Endpoint PCR solution mixed with the synthesized cDNA, Taq polymerase master mix, and primers shown in Table 1 below, and a QuantStudio 3 Real-Time PCR Instrument (Thermo Fisher Scientific Inc., USA). Thereafter, the mRNA level of KRAS was confirmed by loading the Endpoint PCR solution on an agarose gel. In addition, the mRNA levels of nuclear transcription factor Y (NYFA) and X-linked inhibitor of apoptosis protein (XIAP) as a protein of inhibiting apoptosis, were also confirmed together with KRAS.
(§2) A colon cancer cell line HCT116 (KRAS G13D mut), pancreatic cancer cell lines PANC-1 (KRAS G12D mut) and MIA PaCa-2 (KRAS G12C mut), and a breast cancer cell line MCF7 (KRAS wt) were dispensed in a 6-well plate, and treated with GW8510 at 0, 1, 5 or 10 μM of concentration for 24 hours, and then Endpoint PCR was performed. In addition, a qRT-PCR solution was prepared by mixing SYBR Green Master Mix, the cDNA of Example 2-1, and the primers in Table 1, and qRT-PCR was performed with QuantStudio 3 Real-Time PCR Instrument (Thermo Fisher Scientific Inc., USA) to quantify the gene expression levels. In addition, the phenotypes of the cancer cell line were observed by treatment of GW8510 by using the colon cancer cell line HCT116 treated with GW8510 at 0 or 10 μM of concentration for 24 hours, and the protein expression levels of pan ras, K-ras, and β-actin were measured by immunoblot. Specifically, the colon cancer cell line HCT116 treated with GW8510 at 0 or 10 μM of concentration for 24 hours was lysed with an RIPA buffer (Curebio, Korea), and then the cell lysate was centrifuged and the supernatant was taken. The cell lysate supernatant was added with a 5×SDS sample buffer and then boiled for 10 minutes, and electrophoresis was performed using a 12% SDS polyacrylamide gel. After electrophoresis, a protein was transferred to a PVDF membrane and then blocked with 5% skim milk (TBS-T) at room temperature for 1 hour. Thereafter, primary antibodies (anti-pan ras, anti-K-ras, and anti-β-actin) diluted in a blocking solution at 1:1000 were added and incubated at 4° C. overnight, and then a membrane was washed three times with 0.05% TBS-T, and a secondary antibody (horseradish peroxidase-conjugated 2nd Ab) diluted at 1:10000 was added and incubated for 1 hour at room temperature. The membrane was washed three times with 0.05% TBS-T, developed with an enhanced chemiluminescence (ECL) solution, and exposed to an X-ray film.
(§3) To determine whether the inhibition of KRAS by GW8510 was regulated through Cdk2 inhibition, HCT116 cells were treated with other CDK inhibitors, such as PKC inhibitor H7, Cdk2 inhibitor CVT-313, and Cdk4/6 inhibitor PD0332991, other than GW8510 (Cdk2 inhibitor) for 24 hours, respectively, and then to analyze the cell cycle, the cells were subjected to PI staining and confirmed by flow cytometry, and the KRAS expression levels were confirmed by Endpoint PCR and qRT-PCR.

HCT116 cells = assay: Cell cycle analysis by PI staining and flow cytometry; type: cell-based, human; conditions: 24 hours, PI staining flow cytometry
Experimental: as §3

NFYA = NFYA mRNA expression by Endpoint PCR in cancer cell lines; type: cell-based, human
Experimental: as §1

XIAP = XIAP mRNA expression by Endpoint PCR in cancer cell lines; type: cell-based, human
Experimental: as §1

HCT116 cells xenograft = assay: HCT116 xenograft model in nude mice, tumor size; type: in vivo, Balb/c nude mice; conditions: GW8510 10 mg/kg i.p. three times a week, cetuximab 1 mg/mouse i.p. once a week
Experimental: Experimental animals used were 36 6-week-old Balb/c nude mice. The experimental diet and drinking water were taken freely, and all experimental diets were stored in a refrigerator during a breeding period. The mice were pre-bred with regular feed to be adapted to a breeding environment for 7 days before the start of the experiment and then divided into a total of 4 groups. […] In all mice, HCT116 cells were injected with 1×10^6 S.C. at 7 weeks of age to prepare a xenograft model. […] The tumor size was measured using Equation of (long axis×short axis×short axis)/2 and measured three times a week at the same time.

KRAS [2] = assay: KRAS protein expression by immunoblot; type: cell-based, human; conditions: HCT116, GW8510 0 or 10 μM, 24 hours
Experimental: as §2, with “After electrophoresis, a protein was transferred to a PVDF membrane and then blocked with 5% skim milk (TBS-T) at room temperature for 1 hour. Thereafter, primary antibodies (anti-pan ras, anti-K-ras, and anti-β-actin) diluted in a blocking solution at 1:1000 were added and incubated at 4° C. overnight, and then a membrane was washed three times with 0.05% TBS-T, and a secondary antibody (horseradish peroxidase-conjugated 2nd Ab) diluted at 1:10000 was added and incubated for 1 hour at room temperature. The membrane was washed three times with 0.05% TBS-T, developed with an enhanced chemiluminescence (ECL) solution, and exposed to an X-ray film.” left out

[3] = 24 hours, Endpoint PCR and qRT-PCR
[4] = all of the cell lines (HCT116, PC-3, MCF7, MIA PaCa-2, PANC-1)

Which results are given for `COc1ccc(CNc2nc(N(CCO)CCO)nc3c2ncn3C(C)C)cc1` [CVT-313, reference compound]?
KRAS expression (KRAS [1]; [3]): no change in KRAS expression; cell cycle (HCT116 cells): arrested in the GO/G1 phase

With `O=C1Nc2ccc3ncsc3c2/C1=C/Nc1ccc(S(=O)(=O)Nc2ccccn2)cc1` [GW8510] as the molecule, how does the “mRNA expression level of NFYA” value (NFYA; HCT116 cells (KRAS G13D)) read?
The value was “also decreased”.

And the “mRNA level of NFYA” value (NFYA; [4])?
The value was “also decreased”.

What about the “mRNA expression level of XIAP” value (XIAP; HCT116 cells (KRAS G13D)) of the same molecule?
Its value is “also decreased”.

And the “mRNA level of XIAP” value (XIAP; [4])?
Its value is “also decreased”.

What about the tumor size (HCT116 cells xenograft) of the same molecule?
Its tumor size is “tended to decrease compared to the control group”.

And the KRAS transcription level (KRAS [1]; HCT116, PANC-1, MIA PaCa-2 and MCF7, GW8510 0, 1, 5 or 10 μM, 24 hours, Endpoint PCR and qRT-PCR)?
Its KRAS transcription level is “significantly reduced”.

And the KRAS expression (KRAS [1]; [3])?
Its KRAS expression is “inhibited the KRAS expression”.

What about the “mRNA expression level of KRAS” value (KRAS [1]; HCT116 colon cancer cells (KRAS G13D), GW8510 0, 1, 5 or 10 μM, 3, 6, 24 or 48 hours, effect from 6 hours, Endpoint PCR) of the same molecule?
Its value is “decreased in a concentration-dependent manner”.

And the “KRAS mRNA level” value (KRAS [1]; MCF7 breast cancer cells (KRAS wild-type), Endpoint PCR)?
The value was “also reduced”.

And the “KRAS mRNA level” value (KRAS [1]; MIA PaCa-2 pancreatic cancer cells (KRAS G12C), Endpoint PCR)?
The value was “decreased”.

What about the “KRAS mRNA level” value (KRAS [1]; PANC-1 pancreatic cancer cells (KRAS G12D), Endpoint PCR) of the same molecule?
Its value is “decreased”.

What about the “KRAS mRNA level” value (KRAS [1]; PC-3 prostate cancer cells (KRAS G13D), Endpoint PCR) of the same molecule?
The value was “decreased”.

And the KRAS protein level (KRAS [2])?
The KRAS protein level was “also decreased”.

Which results are given for `CC1CNCCN1S(=O)(=O)c1cccc2cnccc12` (stereo not shown) [H7, reference compound]?
KRAS expression (KRAS [1]; [3]): no change in KRAS expression; cell cycle (HCT116 cells): arrested in the GO/G1 phase

What does the source list for `CC(=O)c1c(C)c2cnc(Nc3ccc(N4CCNCC4)cn3)nc2n(C2CCCC2)c1=O` [PD0332991, reference compound]?
KRAS expression (KRAS [1]; [3]): no change in KRAS expression; cell cycle (HCT116 cells): arrested in the GO/G1 phase
